These results are taken from article PMC7425579 (Journal of medicinal chemistry, 2020).

One assay relates to HIV-1ATV-5 μM. The format is cell-based. To be noted: MT-4 cells.
A further assay relates to HIV-1DRV^RP30. The assay is classed as cell-based. The following applies: HIV-1DRV^RP30, MT-4 cells.
The test system of assay [1] is highly drug-resistant HIV-1 variants. Nature of the assay: Antiviral activity against the panel of highly drug-resistant HIV-1 variants. The format is cell-based. To be noted: for ability to block replication of highly PI-resistant HIV-1 variants (in words): panel of Table 3.
Another assay has as its system HIV-1LAI. The assay can be described thus: Antiviral assay in MT-2 human T-lymphoid cells exposed to HIV-1LAI. The format is cell-based. The following applies: MT-2 cells.
For another assay, the target named is HIV-1 protease (Human immunodeficiency virus type 1 group M subtype B, UniProt P04585). Nature of the assay: HIV-1 protease inhibition assay. The assay is classed as biochemical. The following applies: compared to 5b with the enantiomeric P2 ligand.

Bounds are passed on as bounds.

Take `COC(=O)N[C@H](C(=O)N[C@@H](Cc1ccccc1)[C@@H](O)CN(Cc1ccc(-c2ccccn2)cc1)NC(=O)[C@@H](NC(=O)OC)C(C)(C)C)C(C)(C)C` [ATV, atazanavir]: the “fold-change in IC50 compared to wild-type HIV-1NL4-3” value in the assay with HIV-1ATV-5 μM and in the assay on HIV-1DRV^RP30 was more than 250 fold in each case. In addition, the “ability to block replication of highly PI-resistant HIV-1 variants (in words)” value in assay [1] is recorded as “unable to suppress the replication”. For `CC(C)CN(C[C@@H](O)[C@H](Cc1ccccc1)NC(=O)O[C@H]1C[C@H]2CO[C@H]3OC1C[C@@H]23)S(=O)(=O)c1ccc2nc(NC(C)C)oc2c1` [inhibitor 5c, (1S,3aR,5S,7aS)-Octahydro-1,6-epoxyisobenzofuran-5-yl((2S,3R)-3-Hydroxy-4-((N-isobutyl-2-(isopropylamino)benzo-[d]oxazole)-6-sulfonamido)-1-phenylbutan-2-yl)carbamate], in the assay on HIV-1LAI, the “fold improvement of antiviral activity compared to inhibitor 4c” value is given as “over 5 fold”. The “ability to block replication of highly PI-resistant HIV-1 variants (in words)” value in assay [1] is “failed to block replication”. `CC(C)CN(C[C@@H](O)[C@H](Cc1cc(F)cc(F)c1)NC(=O)OC1C[C@@H]2CO[C@@H]3OC1C[C@H]23)S(=O)(=O)c1ccc2nc(NC3CC3)sc2c1` (stereo partly drawn) [inhibitor 4d, (1R,3aS,7aR)-Octahydro-1,6-epoxyisobenzofuran-5-yl((2S,3R)-4-((2-(Cyclopropylamino)-N-isobutylbenzo[d]-thiazole)-6-sulfonamido)-1-(3,5-difluorophenyl)-3-hydroxybutan-2-yl)carbamate]: the IC50 in assay [1] (Human immunodeficiency virus 1, read-out: antiviral activity against highly drug-resistant HIV-1 variants) fell in the range of 0.21 to 4.5 nM.

On to `CC(C)CN(C[C@@H](O)[C@H](Cc1cc(F)cc(F)c1)NC(=O)O[C@H]1C[C@H]2CO[C@H]3OC1C[C@@H]23)S(=O)(=O)c1ccc2nc(NC3CC3)sc2c1` [inhibitor 5d, (1S,3aR,5S,7aS)-Octahydro-1,6-epoxyisobenzofuran-5-yl((2S,3R)-4-((2-(Cyclopropylamino)-N-isobutylbenzo[d]-thiazole)-6-sulfonamido)-1-(3,5-difluorophenyl)-3-hydroxy-butan-2-yl)carbamate], for which the “fold reduction of antiviral activity compared to inhibitor 4d” value with HIV-1LAI is recorded as approximately 25 fold. As for `CC(C)CN(C[C@@H](O)[C@H](Cc1ccc(F)cc1)NC(=O)O[C@H]1C[C@H]2CO[C@H]3OC1C[C@@H]23)S(=O)(=O)c1ccc2nc(NC3CC3)sc2c1` [inhibitor 5f, (1S,3aR,5S,7aS)-Octahydro-1,6-epoxyisobenzofuran-5-yl((2S,3R)-4-((2-(Cyclopropylamino)-N-isobutylbenzo[d]-thiazole)-6-sulfonamido)-1-(4-fluorophenyl)-3-hydroxybutan-2-yl)carbamate], in the assay with HIV-1LAI, the “fold improvement of antiviral activity compared to inhibitor 5b” value is recorded as “over 4 fold”.

With `CC(C)CN(C[C@@H](O)[C@H](Cc1ccc(F)cc1)NC(=O)OC1C[C@@H]2CO[C@@H]3OC1C[C@H]23)S(=O)(=O)c1ccc2nc(NC3CC3)sc2c1` (stereo partly drawn) [inhibitor 4f, (1R,3aS,7aR)-Octahydro-1,6-epoxyisobenzofuran-5-yl((2S,3R)-4-((2-(Cyclopropylamino)-N-isobutylbenzo[d]-thiazole)-6-sulfonamido)-1-(4-fluorophenyl)-3-hydroxybutan-2-yl)carbamate], the “fold improvement of antiviral activity compared to inhibitor 4b” value in the assay with HIV-1LAI was “over 7 fold”. With `CC(C)CN(C[C@@H](O)[C@H](Cc1ccccc1)NC(=O)OC1C[C@@H]2CO[C@@H]3OC1C[C@H]23)S(=O)(=O)c1ccc2nc(NC3CC3)sc2c1` (stereo partly drawn) [inhibitor 4b, (1R,3aS,7aR)-Octahydro-1,6-epoxyisobenzofuran-5-yl((2S,3R)-4-((2-(Cyclopropylamino)-N-isobutylbenzo[d]-thiazole)-6-sulfonamido)-3-hydroxy-1-phenylbutan-2-yl)-carbamate], the “fold better enzyme Ki than inhibitor 5b” value on HIV-1 protease was approximately 10 fold.
